This passage reports EC50 and selectivity ratio results from ChEMBL document CHEMBL1148188, “Cytotoxic and antimalarial alkaloids from the bulbs of Crinum amabile” (J Nat Prod, 1993).

Each structure is given as a SMILES string. Values after ≈ are worked out from the molar mass of the structure shown.

The test system of series [1] is Plasmodium falciparum. The series can be described thus: Antimalarial activity after 24 hrs against Plasmodium falciparum D6 infected type A+ human erythrocytes by [3H]hypoxanthine uptake. Format: functional. The settings on record: D6, read-out: ED50.
Series [2] deals with Plasmodium falciparum. The series can be described thus: Antimalarial activity after 24 hrs against Plasmodium falciparum W2 infected in type A+ human erythrocytes by [3H]hypoxanthine uptake. Format: functional. The following applies: W2, read-out: ED50.
Series [3] can be described thus: Selectivity index, ratio of ED50 for human KB cells to ED50 for Plasmodium falciparum D6. The settings on record: read-out: Ratio ED50. Format: toxicity, cell-based.
Series [4] is described as follows: Selectivity index, ratio of ED50 for human KB cells to ED50 for Plasmodium falciparum W2. It is filed as toxicity, cell-based. The following applies: read-out: Ratio ED50.
The nature of series [5]: Cytotoxicity against human BCA1 cells after 3 days by sulforhodamine B assay. Format: functional. The settings on record: BCA1, 72 h, read-out: ED50 (the source's name). For orientation: In SRB staining, fixed cells bind dye roughly in proportion to their protein.
Another series deals with HT-1080. Description: Cytotoxicity against human HT1080 cells after 3 days by sulforhodamine B assay. Format: functional. The settings on record: HT-1080, 72 h, read-out: ED50 (the source's name).
A short description of series [6]: Cytotoxicity against human LUC1 cells after 3 days by sulforhodamine B assay. Format: functional. The following applies: LUC1, 72 h, read-out: ED50 (the source's name).
The next series concerns SK-MEL-2. The series can be described thus: Cytotoxicity against human SK-MEL-2 cells after 3 days by sulforhodamine B assay. It is filed as functional. The settings on record: SK-MEL-2, 72 h, read-out: ED50 (the source's name).
Series [7] is described as follows: Cytotoxicity against human Col1 cells after 3 days by sulforhodamine B assay. Format: functional. The following applies: Col1, 72 h, read-out: ED50 (the source's name).
The subject of another series is KB. The series can be described thus: Cytotoxicity against human KB cells after 3 days by sulforhodamine B assay. Format: functional. The settings on record: 72 h, read-out: ED50 (the source's name).
Series [8] can be described thus: Cytotoxicity against human KBV1 cells after 3 days by sulforhodamine B assay. It is filed as functional. The settings on record: KB-V1, 72 h, read-out: ED50 (the source's name).
The test system of the next series is P388. Description: Cytotoxicity against mouse P388 cells after 3 days by sulforhodamine B assay. It is filed as functional. The settings on record: P388, 72 h, read-out: ED50 (the source's name).
A further series concerns A-431. The series can be described thus: Cytotoxicity against human A431 cells after 3 days by sulforhodamine B assay. Format: functional. The settings on record: A-431, 72 h, read-out: ED50 (the source's name).
A further series concerns LNCaP. The series can be described thus: Cytotoxicity against human LNCAP cells after 3 days by sulforhodamine B assay. The following applies: 72 h, read-out: ED50 (the source's name). Format: functional.
The test system of a further series is ZR-75-1. The series can be described thus: Cytotoxicity against human ZR-75-1 cells after 3 days by sulforhodamine B assay. The following applies: ZR-75-1, 72 h, read-out: ED50 (the source's name). Format: functional.
Series [9] can be described thus: Cytotoxicity against human U373 cells after 3 days by sulforhodamine B assay. It is filed as functional, U-373MG ATCC. The following applies: U373 MG, 72 h, read-out: ED50 (the source's name).

For the compound `C=C[C@H]1CN2CC[C@H]1C[C@H]2[C@H](O)c1ccnc2ccc(OC)cc12` [QUININE], the EC50 in the series with Plasmodium falciparum [1] came out at 0.0094 µg/mL (≈ 0.029 µM); in the series on Plasmodium falciparum [2], 0.0245 µg/mL (≈ 0.0755 µM). Further, the selectivity ratio in [3] was above 2130; in series [4], above 820.
`C[C@@H]1CC[C@H]2[C@@H](C)C(=O)O[C@@H]3O[C@@]4(C)CC[C@@H]1[C@]32OO4` [ARTEMISININ]: in the series on Plasmodium falciparum [1], the EC50 worked out at 0.0006 µg/mL (≈ 0.00213 µM). Besides, the selectivity ratio in [3] was above 33300; in [4], above 40000.
With `CO[C@@H]1C[C@H]2N3CC[C@@]2(c2cc4c(cc2C3)OCO4)[C@H]2O[C@@H]12`, the EC50 in [5] was 2.8 µg/mL (≈ 9.29 µM); in the series with HT-1080, 1.2 µg/mL (≈ 3.98 µM); in series [6], 3.7 µg/mL (≈ 12.3 µM); in the series on SK-MEL-2, 3.2 µg/mL (≈ 10.6 µM); in series [7] it was 2.4 µg/mL (≈ 7.96 µM); in the series on KB, 0.6 µg/mL (≈ 1.99 µM). Also, the EC50 in series [8] was above 20 µg/mL; in the series on P388, 0.6 µg/mL (≈ 1.99 µM); with A-431, 4.9 µg/mL (≈ 16.3 µM); in the series with LNCaP, 1.7 µg/mL (≈ 5.64 µM); in the series with ZR-75-1, 1.8 µg/mL (≈ 5.97 µM); in series [9], 0.6 µg/mL (≈ 1.99 µM). Also, the EC50 in the series with Plasmodium falciparum [1] was 0.14 µg/mL (≈ 0.465 µM); with Plasmodium falciparum [2], 0.18 µg/mL (≈ 0.597 µM). In addition, the results for the selectivity ratio in [3] and in series [4] were 4 and 3, respectively.
`CCN(CC)CCCC(C)Nc1ccnc2cc(Cl)ccc12` (stereo not drawn) [CHLOROQUINE]: the results for the EC50 in the series with Plasmodium falciparum [1] and with Plasmodium falciparum [2] were 0.0013 µg/mL (≈ 0.00406 µM) and 0.0112 µg/mL (≈ 0.035 µM), respectively.
Turning to `COC1C=C[C@@]23CCN(Cc4cc5c(cc42)OCO5)[C@@H]3C1` (stereo partly drawn), the EC50 (in series [5]; in the series on HT-1080; in [6]; in the series with SK-MEL-2; in series [7]; in the series with KB) was above 20 µg/mL throughout. Besides, the EC50 was 19.8 µg/mL (≈ 69.4 µM) in series [8]; above 5 µg/mL in the series with P388; above 20 µg/mL in the series on A-431; above 20 µg/mL in the series with LNCaP; above 20 µg/mL in the series on ZR-75-1; above 20 µg/mL in [9].
Take `CO[C@H]1C=C[C@@]23c4cc5c(cc4CN(C[C@@H]2O)[C@H]3C1)OCO5`: the EC50 stood at 1.4 µg/mL (≈ 4.65 µM) in series [5]; 1.3 µg/mL (≈ 4.31 µM) in the series with HT-1080; 1.4 µg/mL (≈ 4.65 µM) in series [6]; 5 µg/mL (≈ 16.6 µM) in the series on SK-MEL-2; 1 µg/mL (≈ 3.32 µM) in series [7]; 1 µg/mL (≈ 3.32 µM) in the series on KB. Further, the EC50 in [8] worked out at 0.6 µg/mL (≈ 1.99 µM); in the series with P388, 0.7 µg/mL (≈ 2.32 µM); in the series with A-431, 6.9 µg/mL (≈ 22.9 µM); in the series on LNCaP it was 1.5 µg/mL (≈ 4.98 µM); in the series on ZR-75-1 it was 0.8 µg/mL (≈ 2.65 µM); in series [9], 0.9 µg/mL (≈ 2.99 µM). Also, the selectivity ratio in series [3] and in series [4] was 0.4 in each case.
For the compound `O[C@@H]1CC[C@H]2N3CC[C@@]2(c2cc4c(cc2C3)OCO4)[C@@H]1O`, the EC50 (in series [5]; in the series with HT-1080; in series [6]; in the series on SK-MEL-2; in [7]; in the series with KB) was above 20 µg/mL throughout. Besides, the EC50 in series [8] was above 20 µg/mL; in the series on P388, above 5 µg/mL; in the series on A-431, above 20 µg/mL; with LNCaP, above 20 µg/mL; with ZR-75-1, above 20 µg/mL; in series [9] it was above 20 µg/mL.
In the case of `O[C@H]1[C@H]2c3cc4c(cc3CN3CCC(=C[C@@H]1O)[C@H]23)OCO4` [LYCORINE], the EC50 in [5] amounted to 1.6 µg/mL (≈ 5.57 µM); in the series on HT-1080, 0.5 µg/mL (≈ 1.74 µM); in series [6], 0.9 µg/mL (≈ 3.13 µM); in the series with SK-MEL-2 it was 1.6 µg/mL (≈ 5.57 µM); in [7], 0.8 µg/mL (≈ 2.78 µM); with KB, 0.3 µg/mL (≈ 1.04 µM). Also, the EC50 in [8] was 0.4 µg/mL (≈ 1.39 µM); with P388 it was 0.9 µg/mL (≈ 3.13 µM); in the series with A-431, 1.3 µg/mL (≈ 4.52 µM); in the series on LNCaP, 0.5 µg/mL (≈ 1.74 µM); in the series on ZR-75-1, 0.9 µg/mL (≈ 3.13 µM); in series [9], 0.3 µg/mL (≈ 1.04 µM). Moreover, the EC50 in the series on Plasmodium falciparum [1] came out at 0.32 µg/mL (≈ 1.11 µM); in the series on Plasmodium falciparum [2] it was 0.3 µg/mL (≈ 1.04 µM). The selectivity ratio in series [3] and in series [4] was 1 in each case.
For the compound `OC(c1cc(C(F)(F)F)nc2c(C(F)(F)F)cccc12)C1CCCCN1` (stereo not drawn) [MEFLOQUINE], the EC50 was 0.0073 µg/mL (≈ 0.0193 µM) in the series with Plasmodium falciparum [1] and 0.0016 µg/mL (≈ 0.00423 µM) with Plasmodium falciparum [2]. Besides, the selectivity ratio in series [3] stood at 480; in series [4] it was 2190.
